In EP0286418A1, “Anti-retroviral agents and delivery systems for the same” (priority 1987, dated 1988):
Where “and” joins values, the source holds several entries; their conditions need not be identical. Equal entries are not always repeated. Values belong to the molecule of their own block, whether it stands above or below them.

Tests used:
[1] = test system: monocytes; assay: superoxide generation by monocytes; assay type: cell-based, Human; conditions: PMA treatment (positive control), one value per test series
Experimental: Human peripheral blood mononuclear cells were obtained by standard procedures employing continuous flow cell separation (leukapheresis), such as described in Wahl, et al., Cellular Immunol. 85:373-383 (1984). The preparation was diluted in phosphate-buffered saline and layered onto gradients of Ficoll-Paque (Pharmacia-PL Biochemicals, Piscataway, N.J., USA). After centrifugation, mononuclear cells were pipetted from the interface, washed, and suspended in DMEM-GG-FCS. They were then fractionated by countercurrent centrifugal elutriation. The procedure comprises the Beckman elutriation system including a J-21 Beckman Centrifuge, a JE-6 elutriator rotor, a stroboscope, and a Masterflex pump and pumphead. The cells were loaded into the rotor and fractionated by elution at increasing flow rates. Fractions 7 and 8, highly enriched for monocytes, were pooled for use.

[2] = solute release from liposomes at 4°C; assay type: physicochemical; conditions: from liposomes at 4°C in 2 days
Experimental: Rates of solute release were determined by adding 145 microliters of phosphate buffered saline to 25 microliters of liposomes and centrifuging in an Airfuge (Beckman) at approximately 100,000G for 10 minutes. The liposome pellets were then counted for ¹⁴C lipid, and 100 microliters of each supernatant was diluted 5-fold with phosphate buffered saline for ultraviolet spectroscopy. […] In each case, the triphosphates are released less, and the less phosphorylated forms are released to a greater extent.

[3] = volume of encapsulation in liposomes; assay type: physicochemical; conditions: freeze-thawed multilamellar EPC/PS/cholesterol liposomes; 8 mM solute
Experimental: 2ʹ,3ʹ-dideoxyguanosine 5ʹ-triphosphate (ddGTP), 2ʹ,3ʹ-dideoxyadenosine 5ʹ-triphosphate (ddATP), 2ʹ,3ʹ-dideoxythymidine 5ʹ-triphosphate (ddTTP), 2ʹ,3ʹ-dideoxycytidine 5ʹ-diphosphate (ddCDP), and 2ʹ,3ʹ-dideoxy cytidine 5ʹ-monophosphate (ddCMP) were obtained from Pharmacia (Piscataway, N.J., USA). Liposomes containing each of these agents were prepared using 56 mg EPC, 29 mg PS, 33 mg cholesterol, and 0.125 micro Ci ¹⁴C-cholesteryl oleate. Solutions for encapsulation were 8 mM nucleoside or nucleotide in phosphate-buffered saline pH 7. Liposomes were prepared essentially as described in Example 2, by drying lipid onto the walls of a glass vial, hydrating the lipid with a portion of the solution to be encapsulated, vortex-mixing, and freeze-thawing 5 times with liquid nitrogen. However, the lipid was hydrated in 0.8 ml, rather than 1.0 ml, and the extrusion step was eliminated. […] The preparation was washed by centrifugation 3 times to remove unencapsulated solute. The volume encapsulated was determined by extraction, using equal volumes of chloroform:methanol (65:25) and phosphate buffered saline. The nucleoside and nucleotide solutes partitioned largely into the aqueous phase, whereas lipid was found in the organic phase and near the interface after centrifugation. The amount of solute encapsulated was determined by standard ultraviolet spectroscopy, and the lipid was measured by counting the ¹⁴C label in scintillation fluid.

[4] = test system: adherent human monocytes; assay: uptake of dideoxynucleotides; assay type: cell-based; conditions: 37°C, drug 1 uM
Experimental: Uptake of ₃H-deoxyctidine triphosphate (³H-dCTP) was used as an indicator of the uptake of vesicle contents by cells. Uptake experiments were done by plating 5 × 10⁶ monocytes in each well of a 6-well microtiter plate (Costar) and adding reagents one or two days later. Incubations were done in DMEM-GG-FCS at 37°C. The rate of increase of dCTP content in the cells over a 9-hour period (Table 7) averaged 0.29 pmole/million cells/hr with liposomes containing 4 mM EPC. Other experiments established that ddCTP and ddCMP are not readily taken up by the cells (Table 9).

[5] = in vitro; assay type: in vitro ADME; conditions: dmem-gg-fcs
Experimental: When the same incubations were done in the absence of monocytes, the results were essentially identical.
Studies were conducted under conditions mimicking those of anti-viral tests. ddCMP: dideoxycytidine monophosphate. Data points represent integrals under HPLC peaks from gradient elution on a VYDAC nucleotide column.

Compound: CCCCCCCCCCCCCC(=O)O[C@@H]1[C@@H](C)[C@@]2(O)[C@@H](C=C(CO)C[C@]3(O)C(=O)C(C)=C[C@@H]23)[C@@H]2C(C)(C)[C@]12OC(C)=O [PMA, phorbol myristyl acetate, reference compound]
- Superoxide [1]: 3.23 (.09) nmoles/well and 3.30 (.12) nmoles/well and 3.26 (.05) nmoles/well and 3.46 (.12) nmoles/well

- Percent Release [2]: 0.9%
- Volume of Encapsulation [3]: 1.30 microliters/micromole EPC
Compound: Nc1ncnc2c1ncn2[C@H]1CC[C@@H](COP(=O)(O)OP(=O)(O)OP(=O)(O)O)O1 [ddATP, 2ʹ,3ʹ-dideoxyadenosine 5ʹ-triphosphate]

- pmole drug/1 million cells (mean) ([4]; 0. h): 0.05 pmole drug/1 million cells
- pmole drug/1 million cells (mean) ([4]; 0.33 h): 0.01 pmole drug/1 million cells
- pmole drug/1 million cells (mean) ([4]; 1.00 h): 0.19 pmole drug/1 million cells
- pmole drug/1 million cells (mean) ([4]; 3.00 h): 0.43 pmole drug/1 million cells
- pmole drug/1 million cells (mean) ([4]; 6.00 h): 1.30 pmole drug/1 million cells
- pmole drug/1 million cells (mean) ([4]; 9.00 h): 1.90 pmole drug/1 million cells
- pmole drug/1 million cells (mean) ([4]; 20.00 h): 0.81 pmole drug/1 million cells
Compound: Nc1ccn([C@H]2CC[C@@H](CO)O2)c(=O)n1 [ddC, dideoxycytidine, reference compound]

- Percent Release [2]: 6.2%
- Volume of Encapsulation [3]: 1.26 microliters/micromole EPC
Compound: Nc1ccn([C@H]2CC[C@@H](COP(=O)(O)OP(=O)(O)O)O2)c(=O)n1 [ddCDP, 2ʹ,3ʹ-dideoxycytidine 5ʹ-diphosphate]

- Percent Release [2]: 6.9%
- pmole drug/1 million cells (mean) ([4]; 0. h): 0.07 pmole drug/1 million cells
- pmole drug/1 million cells (mean) ([4]; 0.33 h): 0.18 pmole drug/1 million cells
- pmole drug/1 million cells (mean) ([4]; 1.00 h): 0.22 pmole drug/1 million cells
- pmole drug/1 million cells (mean) ([4]; 3.00 h): 0.08 pmole drug/1 million cells
- pmole drug/1 million cells (mean) ([4]; 6.00 h): 0.20 pmole drug/1 million cells
- metabolised at 72 h [5]: 93%
- Volume of Encapsulation [3]: 0.76 microliters/micromole EPC
Compound: Nc1ccn([C@H]2CC[C@@H](COP(=O)(O)O)O2)c(=O)n1 [ddCMP, 2ʹ,3ʹ-dideoxycytidine 5ʹ-monophosphate]

- Percent Release [2]: 0.3%
- Volume of Encapsulation [3]: 2.74 microliters/micromole EPC
Compound: Nc1nc2c(ncn2[C@H]2CC[C@@H](COP(=O)(O)OP(=O)(O)OP(=O)(O)O)O2)c(=O)[nH]1 [ddGTP, 2ʹ,3ʹ-dideoxyguanosine 5ʹ-triphosphate]

- Percent Release [2]: 45.1%
- Volume of Encapsulation [3]: 1.29 microliters/micromole EPC
Compound: Cc1cn([C@H]2CC[C@@H](CO)O2)c(=O)[nH]c1=O [ddT, dideoxythymidine, reference compound]

Compound: Cc1cn([C@H]2CC[C@@H](COP(=O)(O)OP(=O)(O)OP(=O)(O)O)O2)c(=O)[nH]c1=O [ddTTP, 2ʹ,3ʹ-dideoxythymidine 5ʹ-triphosphate]
- Percent Release [2]: 0.04%
- Volume of Encapsulation [3]: 1.61 microliters/micromole EPC
